Results reported in US20260226094A1, “STEROL-BASED CATIONIC LIPIDS WITH AROMATIC HEAD GROUPS” (SANOFI, priority 2023, published 2026).

How the values were obtained:
[1] = Lipid degradability by mouse lung S9 in vitro; format: in vitro ADME; conditions: 2 μM lipid, 2.4 mg/ml lung S9, pH 7.4, 37° C.
Method: (§1) Lipid degradability by MOUSE/HUMAN lung S9 in vitro
(§2) Assay format—4 or 5 time points in triplicate.
(§3) • 1) Plan experiment, compounds, and reagents. • 2) Dissolve each lipid in DMSO or IPA to make 5 mM stock, then dilute by IPA to 200 μM work solution. • 3) Thaw mouse and human lung S9. • 4) Prepare pooled incubation mixture as in the reaction formulas below on ice. • 5) Aliquot 495 μL incubation mixture prepared in step #4 to each well of a 2 mL 96-well plate. • 6) Add 5 μL compound to each well to initiate the reaction. Take t0 samples (as in step #8). • 7) Cover the plate with 2 layers of breathable seals and incubate the plate on an orbital shaker at 150 rpm in a 37° C. CO2 incubator. • 8) At each time point, pipette to mix the incubation mixture 5 times, then take 70 μL of incubation mixture to a fresh plate. Store in −20° C. freezer immediately. • 9) Add 210 μL (3× volume) of the cold stop solution to each well of the sample plates collected. Mix at 600 rpm on an orbital shaker for 15 min. • 10) Centrifuge the quenched plates at 3800 rpm for 10 min at 4° C. and transfer supernatant to fresh plates. • 11) Load the supernatant on filter plates and centrifuge again at 3800 rpm for 5 min at 4° C. Collect final samples in fresh plates for LC/MS.
(§4) • 4-5 Time points (hour): e.g. 0, 4, 8, 24, 48 hr • stop solution: 1:1:1 ACN/MeOH/IPA (v/v/v) with propranolol & MC3 as internal standard. Store at 4° C.

[2] = Lipid degradability by human lung S9 in vitro; format: in vitro ADME; conditions: 2 μM lipid, 2.4 mg/ml lung S9, pH 7.4, 37° C.
Method: as §1, §2, §3, §4

mice = test: Delivery of FFL mRNA by intranasal administration, IVIS luminescent imaging; format: in vivo, mouse; conditions: lipid nanoparticle with FFL mRNA, dose 10 μg/Animal, 24 hours post dose
Method: Lipid nanoparticle formulation 3 listed in Table 1 comprising FFL mRNA, cationic lipid, DMG-PEG2000, cholesterol and DOPE was administered in mice via pipetting the formulations at 10 μg/Animal and 15 μl per nostril. On Day 2, 24 hours post dose (±5%), all animals undergo a luminescent imaging session using IVIS with separate ROIs on the nose and lungs. Whole body imaging are performed 10-15 minutes following D-Luciferin administration. All animals are dosed with 0.2 mL of 15 mg/mL D-luciferin solution via intraperitoneal (IP) injection. Anesthesia performed by isoflurane during the procedure and animals will be placed sternal recumbency (face-down). […]

male CD1 mice = test: Delivery of FFL mRNA by intratracheal administration, IVIS luciferase imaging of the lung; format: in vivo, mouse; conditions: lipid nanoparticles with FFL mRNA, single intratracheal administration via catheter, about 24 hours post-dose
Method: Lipid nanoparticle formulations listed in Table 1 comprising FFL mRNA, cationic lipid, DMG-PEG2000, cholesterol and DOPE were administered to male CD1 mice (6-8 weeks old) by a single intratracheal administration via Catheter® ([…]) while under anesthesia. At approximately 24 hours post-dose, the animals were dosed with luciferin at 150 mg/kg (60 mg/ml) by intraperitoneal injection at 2.5 ml/kg. After 5-15 minutes, all animals were imaged using an IVIS imaging system to measure luciferase production in the lung.

Structure (SMILES) | In vitro degradation Mouse lung S9 [1] | In vitro degradation Human lung S9 [2] | FFLuc (Avr. Rad.) (mice) | in vivo FFL protein production (luciferase activity in the lung, FIG. 5) (male CD1 mice)
COc1cc(C(=O)OCCCN(C)C)cc(OC)c1OC(=O)CCO[C@H]1CC[C@@]2(C)C(=CC[C@H]3[C@@H]4CC[C@H]([C@H](C)CCCC(C)C)[C@@]4(C)CC[C@@H]32)C1 [Compound II] | 39.3 h | 38.2 h | 592,290 p/s/cm^2/sr | 
COc1cc(C(=O)OCCN(C)C)cc(OC)c1OC(=O)CCC(=O)O[C@H]1CC[C@@]2(C)C(=CC[C@H]3[C@@H]4CC[C@H]([C@H](C)CCCC(C)C)[C@@]4(C)CC[C@@H]32)C1 [Compound I] | 23.6 h | 22.2 h | 421,679 p/s/cm^2/sr | 
COc1cc(C(=O)OCCCNC(=N)N)cc(OC)c1OC(=O)CCO[C@H]1CC[C@@]2(C)C(=CC[C@@H]3C2CC[C@]2(C)[C@@H]([C@H](C)CCCC(C)C)CC[C@@H]32)C1 (some centres unmarked) [Compound IV] | 69.6 h | 62.9 h | 833,279 p/s/cm^2/sr | high levels of in vivo FFL protein production
COc1cc(C(=O)OCCNC(=N)N)cc(OC)c1OC(=O)CCO[C@H]1CC[C@@]2(C)C(=CC[C@H]3[C@@H]4CC[C@H]([C@H](C)CCCC(C)C)[C@@]4(C)CC[C@@H]32)C1 [Compound III] | 50.1 h | 39.2 h | 890,880 p/s/cm^2/sr | high levels of in vivo FFL protein production
